Measurements from US8535740B2, “Compositions from Nigella sativa” (priority 2002, dated 2013).
In brackets after ≈: the same amount, converted by molar mass.

Key:
[1] = system: iNOS-mediated NO biosynthesis in 3T3-L1 adipocytes; test: LTI cytokine-stimulated NO biosynthesis in 3T3-L1 adipocytes; format: cell-based, murine; details: Mus musculus, value computed on the basis of TQ content, LPS/TNFα/IFγ stimulation 20 hours, (95% confidence interval), read-out: Median Inhibitory Concentration for iNOS-mediated NO biosynthesis, 3T3-L Adipocytes
Method: Cell culture and treatment-The murine fibroblast cell line 3T3-L1 was purchased from the American Type Culture Collection (Manassas, Va.) and sub-cultured according to instructions from the supplier. Prior to experiments, cells were cultured in DMEM containing 10% FBS-HI added 50 units penicillin/ml and 50 μg streptomycin/ml, and maintained in log phase prior to experimental setup. Cells were grown in a 5% CO2 humidified incubator at 37° C. Components of the pre-confluent medium included: (1) 10% FBS/DMEM (Fetal Bovine Serum/Dulbecco's Modified Eagle's Medium) containing 4.5 g glucose/L; (2) 50 U/ml penicillin; and (3) 50 μg/ml streptomycin. Growth medium was made by adding 50 ml of heat inactivated FBS and 5 ml of penicillin/streptomycin to 500 ml DMEM. This medium was stored at 4° C. Before use, the medium was warmed to 37° C. in a water bath. […] cells were seeded at an initial density of 6×10^4 cells/cm^2 in 24-well plates. […] Determination of nitrite in waters by microplate fluorescence spectroscopy and HPLC with fluorescence detection. […] After a reaction time of 30 minutes at ambient temperature, the fluorescence was read with 485 nm excitation filter and a 530 nm emission filter in a Packard Fluorocount spectrofluorometer (Model #BF10000, Meridan, Conn.). […] Quantitative analysis of dose-effect relationships: the combined effects of multiple drugs or enzyme inhibitors.

[2] = system: iNOS-mediated NO biosynthesis in C2C12 myocytes; test: LTI cytokine-stimulated NO biosynthesis in C2C12 myocytes; format: cell-based, murine; details: Mus musculus, value computed on the basis of TQ content, LPS/TNFα/IFγ stimulation 20 hours, (95% confidence interval), read-out: Median Inhibitory Concentration for iNOS-mediated NO biosynthesis, C2C12 Myocytes
Method: Mouse C2C12 myoblasts (American Type Culture Collection, Manassas, Va.) were maintained in Dulbecco's modified Eagle's medium (DMEM) supplemented with 10% fetal calf serum (FCS), 50 units/ml penicillin and 50 μg/ml streptomycin. As cells reached confluence, the medium was switched to the differentiation medium containing DMEM and 2% horse serum. Medium was changed every other day. […] At the end of the treatment period, media were sampled for determination of NO. […] Determination of nitrite in waters by microplate fluorescence spectroscopy and HPLC with fluorescence detection. Anal Chem. Aug. 1 1999; 71(15):3003-3007). In a separate, black-walled, 96-well, microtiter plate, a 7 μL aliquot of a 4.8×10^-4 mol NBDM/L solution was added to 200 μL of the supernatant media followed by the addition of 15 μL of concentrated phosphoric acid. After a reaction time of 30 minutes at ambient temperature, the fluorescence was read with 485 nm excitation filter and a 530 nm emission filter in a Packard Fluorocount spectrofluorometer (Model #BF10000, Meridan, Conn.). […] Quantitative analysis of dose-effect relationships: the combined effects of multiple drugs or enzyme inhibitors.

[3] = DPPH free radical scavenging (antioxidant) activity; format: biochemical; details: computed on basis of TQ content
Method: Methodology—Antioxidant activity was determined utilizing 2,2-diphenyl-1-picrylhydrazyl (DPPH), which is a stable radical. […] The color turns from purple to yellow as the molar absorption of the DPPH radical at 550 nm is reduced when the odd electron of DPPH radical becomes paired with hydrogen from a free radical scavenging antioxidant to form the reduced DPPH-H. The test samples were dissolved in methanol containing 1% dimethyl sulfoxide and added to microtiter wells in 100 μL aliquots to 100 μL of a 100 μM DPPH solution in methanol. Readings were taken at 10, 30 and 60 minutes following the addition of the test material. Percent inhibition of the DPPH radical by the test material was computed relative to the inhibition of the DPPH radical by the vitamin E analog trolox and tabulated as μmol trolox/g test material.

3T3-L1 adipocytes = test: Lipolysis (glycerol / free fatty acid release) in 3T3-L1 adipocytes; format: cell-based, murine; details: forskolin 82 μg/mL, test materials 5 μg/mL (FIG. 9)
Method: Cell culture and treatment-Culture and treatment of 3T3-L1 adipocytes and C2C12 myocytes was as described in Example 5. Concentrations of the forskolin positive control and test materials are listed in FIG. 9 for adipocytes and FIG. 10 for myocytes. Glycerol assay-Free fatty acid release from 3T3-L1 adipocytes or C2C12 myocytes was quantified by measuring glycerol secretion into the medium. Glycerol was measured spectrophotometrically using the Free Glycerol Determination Kit ([…], Sigma) and an EL 312e Microplate BIO-KINETICS spectrophotometer (BioTek, Winooski, Vt.). Data analysis-Glycerol release from adipocytes and myocytes was expressed, respectively, as the percent increase in free fatty acid secretion (FIG. 9) and relative glycerol content (glycerol index FIG. 10) ±95% confidence intervals of eight observations for one of three representative experiments.

- IC50 [2]: 1.9 µg/mL (≈ 11.6 µM)
Structure (SMILES): CC1=CC(=O)C(C(C)C)=CC1=O [Thymoquinone (Sigma), thymoquinone]
- IC50 [1]: 1.9 µg/mL (≈ 11.6 µM)
- DPPH Reducing Activity [3]: 45.2 μmol Trolox/g TQ
- free fatty acid release in adipocytes (3T3-L1 adipocytes): induced free fatty acid release
